Read-outs that look alike come from different tables or passages of the source.
Legend:
[1] = test system: 3T3 murine fibroblasts; test: Cytotoxicity on 3T3 cells (MTT assay); assay type: cell-based; conditions: 24 h; for Toxicity to 3T3 murine fibroblasts compared with the original drug (CFX): 100 µM; for IC50: read-out: IC50 for toxicity on 3T3 murine fibroblasts
[2] = test system: Escherichia coli (ATCC 25922); test: Antimicrobial activity, growth inhibition (OD 600 nm); assay type: cell-based; conditions: for IC50: read-out: IC50 E. coli
[3] = test system: Pseudomonas aeruginosa (ATCC 27853); test: as above; assay type: cell-based; conditions: for IC50: read-out: IC50 P. aeruginosa
[4] = test system: Bacillus subtilis (ATCC 6633); test: as above; assay type: cell-based; conditions: for IC50: read-out: IC50 B. subtilis
[5] = cited from earlier work
[6] = Water solubility at 37 °C by consecutive addition of water until full dissolution; assay type: physicochemical
Procedure: The solubility of the prepared cefuroxime OSILs was determined by adding known volumes of water consecutively to a certain amount of CFX-OSILs at 37 °C until full dissolution was observed. Figure 3 presents the maximum water solubility values of the prepared CFX-OSILs.

[7] = Octanol-water partition studies (Kow); assay type: physicochemical
[8] = 6 h, 0.03–100 µM, interval in brackets
[9] = Mus musculus, Fibroblast, MTT, 1–100 µM
[10] = Escherichia coli, ATCC25922, 6 h, 0.03–100 µM, interval in brackets
[11] = Pseudomonas aeruginosa, ATCC27853, 6 h, 0.03–100 µM, interval in brackets
[12] = Bacillus subtilis, ATCC6633, 6 h, 0.03–100 µM, interval in brackets

IC50 [2, 10] [µM] | IC50 [3, 11] [µM] | IC50 [4, 12] [µM] | Structure (SMILES) | Toxicity to 3T3 murine fibroblasts compared with the original drug (CFX) ([1]; MTT) | IC50 ([1]; MTT, 1–100 µM) [µM] | IC50 [2, 8] [µM] | IC50 [3, 8] [µM] | IC50 [4, 8] [µM] | IC50 [1, 9] [µM] | further results
– | – | – | CCCCCC[n+]1ccccc1.CO/N=C(\C(=O)N[C@@H]1C(=O)N2C(C(=O)[O-])=C(COC(N)=O)CS[C@H]12)c1ccco1 [[C6Py][CFX]] | no additional detrimental effect | > 100 | 26.8 | 3.99 | 8.85 | – | –
– | – | – | CO/N=C(\C(=O)N[C@@H]1C(=O)N2C(C(=O)OC(C)OC(C)=O)=C(COC(N)=O)CS[C@H]12)c1ccco1 (some centres unmarked) [cefuroxime axetil] | – | – | – | – | – | – | Time of peak concentration in serum ([5]; after oral administration): approximately 2 h
– | – | – | CCCCCCCCCCCCCCCC[n+]1ccn(C)c1.CO/N=C(\C(=O)N[C@@H]1C(=O)N2C(C(=O)[O-])=C(COC(N)=O)CS[C@H]12)c1ccco1 [[C16MIM][CFX]] | more toxic | 13.9 | 9.23 | 4.02 | 2.65 | – | Water solubility [6]: 11000 µg/mL; Octanol-water partition (Kow) [7]: 1.7
– | – | – | CCCCCCCCCC[n+]1ccccc1.CO/N=C(\C(=O)N[C@@H]1C(=O)N2C(C(=O)[O-])=C(COC(N)=O)CS[C@H]12)c1ccco1 [[C10Py][CFX]] | more toxic | 62.5 | 90.3 | 16.6 | 23 | – | Increase in water solubility relative to free CFX [6]: > 7.7 fold; Water solubility [6]: 5400 µg/mL; Kow in comparison with the original drug (CFX) [7]: approximately four-times greater; Relative toxicity on 3T3 cells (comparison of IC50 values) ([1]; MTT): approximately five-times less toxic
> 100 | > 100 | > 100 | CCCCCC[n+]1ccccc1 [[C6Py]Br, reference compound] | – | – | – | – | – | > 100 | –
– | – | – | c1cc[n+](CCCCCCCCCC[n+]2ccccc2)cc1 [[PyC10Py]Br2, decylbispyridinium dibromide, reference compound] | – | – | – | – | – | – | IC50 ([1]; Mus musculus, Fibroblast): > 100 µM; IC50 ([2]; Escherichia coli, ATCC25922, 6 h): > 100 µM; IC50 ([3]; Pseudomonas aeruginosa, ATCC27853, 6 h): > 100 µM; IC50 ([4]; Bacillus subtilis, ATCC6633, 6 h): > 100 µM
> 100 | 95.5 | 80.9 | CCCCCCCCCC[n+]1ccccc1 [[C10Py]Br, reference compound] | – | – | – | – | – | 98 | –
– | – | – | CO/N=C(\C(=O)N[C@@H]1C(=O)N2C(C(=O)[O-])=C(COC(N)=O)CS[C@H]12)c1ccco1.CO/N=C(\C(=O)N[C@@H]1C(=O)N2C(C(=O)[O-])=C(COC(N)=O)CS[C@H]12)c1ccco1.c1cc[n+](CCCCCCCCCC[n+]2ccccc2)cc1 [[PyC10Py][CFX]2] | no additional detrimental effect | > 100 | 4.92 | 0.66 | 0.85 | – | Water solubility ([6]; water, 37 °C): 140000 µg/mL; Antimicrobial activity against E. coli compared with CFX ([2]; times more effective than CFX): 1.3; Antimicrobial activity against P. aeruginosa compared with CFX [3]: comparable activity to CFX; Antimicrobial activity against B. subtilis compared with CFX [4]: comparable activity to CFX
– | – | – | CO/N=C(\C(=O)N[C@@H]1C(=O)N2C(C(=O)O)=C(COC(N)=O)CS[C@H]12)c1ccco1 [cefuroxime sodium] | – | – | – | – | – | – | Serum concentration ([5]; single 500 mg intramuscular dose, for a period of 2.5 to 3 h): 8000 ng/mL; Half-life ([5]; single 500 mg intramuscular dose): 1.17 h
– | – | – | CCCCCCCCCCCCCCCC[n+]1ccccc1.CO/N=C(\C(=O)N[C@H]1C(=O)N2C(C(=O)[O-])=C(COC(N)=O)CS[C@@H]12)c1ccco1 [[C16Py][CFX]] | more toxic | 11.7 | 9.66 | 4.54 | 5.08 | – | Increase in water solubility relative to free CFX [6]: > 7.7 fold; Water solubility [6]: 5500 µg/mL; Octanol-water partition (Kow) [7]: 2.5
11.3 | 4.81 | 5.19 | CCCCCCCCCCCCCCCC[n+]1ccn(C)c1 [[C16MIM]Br, reference compound] | – | – | – | – | – | 13.3 | –

Structure (SMILES) | IC50 [2, 10] [µM] | IC50 [3, 11] [µM] | IC50 [4, 12] [µM] | Toxicity to 3T3 murine fibroblasts compared with the original drug (CFX) ([1]; MTT) | IC50 ([1]; MTT, 1–100 µM) [µM] | IC50 [2, 8] [µM] | IC50 [3, 8] [µM] | IC50 [4, 8] [µM] | IC50 [1, 9] [µM] | further results
CO/N=C(\C(=O)N[C@@H]1C(=O)N2C(C(=O)O)=C(COC(N)=O)CS[C@H]12)c1ccco1 [CFX, Cefuroxime] | 6.42 | 0.55 | 0.95 | – | – | – | – | – | > 100 | solubility ([6]; water, 37 °C): < 700 µg/mL
